Reference: patent publication US5698522A, “6-position modified decapeptide LHRH antagonists” (Abbott Laboratories, priority 1995, dated 1997)
*1 amine or outer side, *2 acyl side, *3 side chain or, on linkers, in order; H or OH if unused. Where a SMILES comes first, the peptide text is derived from it. Side-chain parts run from the residue outwards. [ ]: non-standard residue; d: D form. The star is where a group is joined. X3 = O=Cn1cc(C[C@@H](NC(=O)C2=C[C@@H](O)[C@@H](O)[C@H](O)C2)C(=O)*)c2ccccc21; NMePhe(4-NH(5-NH2-Trz-3-yl)) = CN[C@@H](Cc1ccc(Nc2n[nH]c(N)n2)cc1)C(=O)O; Shikimoyl = O=C(C1=C[C@@H](O)[C@@H](O)[C@H](O)C1)*; X5 = O=C(NCCCN*)C1=C[C@@H](O)[C@@H](O)[C@H](O)C1; Quinoline4carbonyl = O=C(c1ccnc2ccccc12)*; dPhe(4-Cl) = N[C@H](Cc1ccc(Cl)cc1)C(=O)O; d2Nal = N[C@H](Cc1ccc2ccccc2c1)C(=O)O; Lys(iPr) = CC(C)NCCCC[C@H](N)C(=O)O; NMeY = CN[C@@H](Cc1ccc(O)cc1)C(=O)O; Ethylenediamine = C(CN[*:2])N[*:1]; d3Pal = N[C@H](Cc1cccnc1)C(=O)O; Nicotinoyl = O=C(c1cccnc1)*; Picolinoyl = O=C(c1ccccn1)*; X1 = O=C(c1cc2ccccc2cc1O)*; X4 = Nc1nc(NCC(=O)*)n[nH]1; dOrn = NCCC[C@@H](N)C(=O)O; 2Furoyl = O=C(c1ccco1)*; CO = O=C([*:1])[*:2]; GABA = NCCCC(=O)O; azaGly = NNC(=O)O

Target: T1, LHRH receptor (Rattus norvegicus, UniProt P30969)
T1 construct: endogenous in cells
T1 sequence (P30969 1-327): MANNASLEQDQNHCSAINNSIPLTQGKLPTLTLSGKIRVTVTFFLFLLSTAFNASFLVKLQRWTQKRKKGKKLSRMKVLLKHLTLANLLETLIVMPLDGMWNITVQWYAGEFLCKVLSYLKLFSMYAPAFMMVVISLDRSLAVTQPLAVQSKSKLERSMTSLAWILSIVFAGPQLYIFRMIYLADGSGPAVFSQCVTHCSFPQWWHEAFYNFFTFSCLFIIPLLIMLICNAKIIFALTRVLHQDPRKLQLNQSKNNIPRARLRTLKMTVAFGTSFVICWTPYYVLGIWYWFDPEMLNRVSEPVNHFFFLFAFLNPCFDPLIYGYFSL
Assay: in vitro LHRH antagonist potency (pA2) against the agonist leuprolide
Assay type: cell-based
Details: negative logarithm of the antagonist concentration which shifts the response curve produced by the agonist leuprolide to two-fold higher concentration
Summary of the method: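 Functional antagonism against the agonist leuprolide. pA2 is the negative log of antagonist concentration that shifts the leuprolide response curve to twofold higher concentration.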

CC(=O)N[C@H](Cc1ccc2ccccc2c1)C(=O)N[C@H](Cc1ccc(Cl)cc1)C(=O)N[C@H](Cc1cccnc1)C(=O)N[C@@H](CO)C(=O)N(C)[C@@H](Cc1ccc(O)cc1)C(=O)N[C@H](CCCNC(=O)[C@@H](CO)NC(=O)C1=C[C@@H](O)[C@@H](O)[C@H](O)C1)C(=O)N[C@@H](CC(C)C)C(=O)N[C@@H](CCCNC(=N)N)C(=O)N1CCC[C@H]1C(=O)N[C@H](C)C(N)=O [Example 49d, NAc-D2Nal^1 -D4ClPhe^2 -D3Pal^3 -Ser^4 -NMeTyr^5 -DOrn(N-epsilon-DSer-Shikimyl)^6 -Leu^7 -Arg^8 -Pro^9 -DAla^10 NH2] (Ac-[d2Nal][dPhe(4-Cl)][d3Pal]S[NMeY][dOrn]([dS-Shikimoyl])LRP[dA]-NH2)
Kb: 1.66 pM

CC(=O)N[C@H](Cc1ccc2ccccc2c1)C(=O)N[C@H](Cc1ccc(Cl)cc1)C(=O)N[C@H](Cc1cccnc1)C(=O)N[C@@H](CO)C(=O)N(C)[C@@H](Cc1ccc(O)cc1)C(=O)N[C@H](CCCCNC(=O)CNC(=O)c1ccnc2ccccc12)C(=O)N[C@@H](CC(C)C)C(=O)N[C@@H](CCCNC(=N)N)C(=O)N1CCC[C@H]1C(=O)N[C@H](C)C(N)=O [Example 51d, NAc-D2Nal^1 -D4ClPhe^2 -D3Pal^3 -Ser^4 -NMeTyr^6 -DLys(N-epsilon-Gly-4-Quinolinyl)^6 -Leu^7 -Arg^8 -Pro^9 -DAla^10 NH2] (Ac-[d2Nal][dPhe(4-Cl)][d3Pal]S[NMeY][dK]([Gly-Quinoline4carbonyl])LRP[dA]-NH2)
Kb: 14.1 pM

CC(=O)N[C@H](Cc1ccc2ccccc2c1)C(=O)N[C@H](Cc1ccc(Cl)cc1)C(=O)N[C@H](Cc1cccnc1)C(=O)N[C@@H](CO)C(=O)N(C)[C@@H](Cc1ccc(O)cc1)C(=O)N[C@H](CCCCNC(=O)[C@@H](Cc1c[nH]cn1)NC(=O)C1=C[C@@H](O)[C@@H](O)[C@H](O)C1)C(=O)N[C@@H](CC(C)C)C(=O)N[C@@H](CCCNC(=N)N)C(=O)N1CCC[C@H]1C(=O)N[C@H](C)C(N)=O [Example 48h, NAc-D2Nal^1 -D4ClPhe^2 -D3Pal^3 -Ser^4 -NMeTyr^5 -DLys(N-epsilon-D-His-Shikimyl)^6 -Leu^7 -Arg^8 -Pro^9 -DAla^10 NH2] (Ac-[d2Nal][dPhe(4-Cl)][d3Pal]S[NMeY][dK]([dH-Shikimoyl])LRP[dA]-NH2)
Kb: 38 pM

CC(=O)N[C@H](Cc1ccc2ccccc2c1)C(=O)N[C@H](Cc1ccc(Cl)cc1)C(=O)N[C@H](Cc1cccnc1)C(=O)N[C@@H](CO)C(=O)N(C)[C@@H](Cc1ccc(O)cc1)C(=O)N[C@H](CCCCNC(=O)CNC(=O)c1ccccn1)C(=O)N[C@@H](CC(C)C)C(=O)N[C@@H](CCCNC(=N)N)C(=O)N1CCC[C@H]1C(=O)N[C@H](C)C(N)=O [Example 48a, NAc-D2Nal^1 -D4ClPhe^2 -D3Pal^3 -Ser^4 -NMeTyr^5 -DLys(N-epsilon-Gly-Picolinyl)^6 -Leu^7 -Arg^8 -Pro^9 -DAla^10 NH2] (Ac-[d2Nal][dPhe(4-Cl)][d3Pal]S[NMeY][dK]([Gly-Picolinoyl])LRP[dA]-NH2)
Kb: 7.94 pM

CC(=O)N[C@H](Cc1ccc2ccccc2c1)C(=O)N[C@H](Cc1ccc(Cl)cc1)C(=O)N[C@H](Cc1cccnc1)C(=O)N[C@@H](CO)C(=O)N(C)[C@@H](Cc1ccc(O)cc1)C(=O)N[C@H](CCCCNC(=O)CNC(=O)c1ccco1)C(=O)N[C@@H](CC(C)C)C(=O)N[C@@H](CCCCNC(C)C)C(=O)N1CCC[C@H]1C(=O)N[C@H](C)C(N)=O [Example 6a, NAc-D2Nal^1 -D4ClPhe^2 -D3Pal^3 -Ser^4 -NMeTyr^5 -DLys(N-epsilon-Gly-2-Furoyl)^6 -Leu^7 -Lys(N-epsilon-Isopropyl)^8 -Pro^9 -DAla^10 NH2] (Ac-[d2Nal][dPhe(4-Cl)][d3Pal]S[NMeY][dK]([Gly-2Furoyl])L[Lys(iPr)]P[dA]-NH2)
Kb: 15.8 pM

CC(=O)N[C@H](Cc1ccc2ccccc2c1)C(=O)N[C@H](Cc1ccc(Cl)cc1)C(=O)N[C@H](Cc1cccnc1)C(=O)N[C@@H](CO)C(=O)N(C)[C@@H](Cc1ccc(O)cc1)C(=O)N[C@H](CCCCNC(=O)CNC(=O)C1=C[C@@H](O)[C@@H](O)[C@H](O)C1)C(=O)N[C@@H](CC(C)C)C(=O)N[C@@H](CCCCNC(C)C)C(=O)N1CCC[C@H]1C(=O)N[C@H](C)C(N)=O [Example 6b, NAc-D2Nal^1 -D4ClPhe^2 -D3Pal^3 -Ser^4 -NMeTyr^5 -DLys(N-epsilon-Gly-Shikimyl)^6 -Leu^7 -Lys(N-epsilon-Isopropyl)^8 -Pro^9 -DAla^10 NH2] (Ac-[d2Nal][dPhe(4-Cl)][d3Pal]S[NMeY][dK]([Gly-Shikimoyl])L[Lys(iPr)]P[dA]-NH2)
Kb: 24 pM

CC(=O)N[C@H](Cc1ccc2ccccc2c1)C(=O)N[C@H](Cc1ccc(Cl)cc1)C(=O)N[C@H](Cc1cccnc1)C(=O)N[C@@H](CO)C(=O)N(C)[C@@H](Cc1ccc(O)cc1)C(=O)N[C@H](CCCCNC(=O)[C@@H](Cc1cn(C=O)c2ccccc12)NC(=O)C1=C[C@@H](O)[C@@H](O)[C@H](O)C1)C(=O)N[C@@H](CC(C)C)C(=O)N[C@@H](CCCNC(=N)N)C(=O)N1CCC[C@H]1C(=O)N[C@H](C)C(N)=O [Example 65a, NAc-D2Nal^1 -D4ClPhe^2 -D3Pal^3 -Ser^4 -NMeTyr^5 -DLys(N-epsilon-DTrp(Formyl)-Shikimyl)^6 -Leu^7 -Arg^8 -Pro^9 -DAla^10 NH2] (Ac-[d2Nal][dPhe(4-Cl)][d3Pal]S[NMeY][dK](X3)LRP[dA]-NH2)
Kb: 25.1 pM

CC(=O)N[C@H](Cc1ccc2ccccc2c1)C(=O)N[C@H](Cc1ccc(Cl)cc1)C(=O)N[C@H](Cc1cccnc1)C(=O)N[C@@H](CO)C(=O)N(C)[C@@H](Cc1ccc(O)cc1)C(=O)N[C@H](CCCCNC(=O)CNC(=O)c1ccco1)C(=O)N[C@@H](CC(C)C)C(=O)N[C@@H](CCCNC(=N)N)C(=O)N1CCC[C@H]1C(=O)N[C@H](C)C(N)=O [Example 18, NAc-D2Nal^1 -D4ClPhe^2 -D3Pal^3 -Ser^4 -NMeTyr^5 -DLys(N-epsilon-Gly-2Furoyl)^6 -Leu^7 -Arg^8 -Pro^9 -DAla^10 NH2] (Ac-[d2Nal][dPhe(4-Cl)][d3Pal]S[NMeY][dK]([Gly-2Furoyl])LRP[dA]-NH2)
Kb: 3.09 pM

CC(=O)N[C@H](Cc1ccc2ccccc2c1)C(=O)N[C@H](Cc1ccc(Cl)cc1)C(=O)N[C@H](Cc1cccnc1)C(=O)N[C@@H](CO)C(=O)N(C)[C@@H](Cc1ccc(O)cc1)C(=O)N[C@H](CCCCNC(=O)CCCNC(=O)c1cccnc1)C(=O)N[C@@H](CC(C)C)C(=O)N[C@@H](CCCCNC(C)C)C(=O)N1CCC[C@H]1C(=O)N[C@H](C)C(N)=O [Example 4b, NAc-D2Nal^1 -D4ClPhe^2 -D3Pal^3 -Ser^4 -NMeTyr^5 -DLys[N-epsilon-(gamma-Aminobutyryl)Nicotinyl]^6 -Leu^7 -Lys(N-epsilon-Isopropyl)^8 -Pro^9 -DAla^10 NH2] (Ac-[d2Nal][dPhe(4-Cl)][d3Pal]S[NMeY][dK]([GABA-Nicotinoyl])L[Lys(iPr)]P[dA]-NH2)
Kb: 23.4 pM

CC(=O)N[C@H](Cc1ccc2ccccc2c1)C(=O)N[C@H](Cc1ccc(Cl)cc1)C(=O)N[C@H](Cc1cccnc1)C(=O)N[C@@H](CO)C(=O)N(C)[C@@H](Cc1ccc(O)cc1)C(=O)N[C@H](CCCCNC(=O)NCCCNC(=O)C1=C[C@@H](O)[C@@H](O)[C@H](O)C1)C(=O)N[C@@H](CC(C)C)C(=O)N[C@@H](CCCNC(=N)N)C(=O)N1CCC[C@H]1C(=O)N[C@H](C)C(N)=O [Example 42, NAc-D2Nal^1 -D4ClPhe^2 -D3Pal^3 -Ser^4 -NMeTyr^5 -DLys[N-epsilon-(N'-Carbonyl-Diaminopropane-N"-Shikimyl)]^6 -Leu^7 -Arg^8 -Pro^9 -DAla^10 NH2] (Ac-[d2Nal][dPhe(4-Cl)][d3Pal]S[NMeY][dK]([CO-X5])LRP[dA]-NH2)
Kb: 25.7 pM

CC(=O)N[C@H](Cc1ccc2ccccc2c1)C(=O)N[C@H](Cc1ccc(Cl)cc1)C(=O)N[C@H](Cc1cccnc1)C(=O)N[C@@H](CO)C(=O)N(C)[C@@H](Cc1ccc(Nc2n[nH]c(N)n2)cc1)C(=O)N[C@H](CCCCNC(=O)CNc1n[nH]c(N)n1)C(=O)N[C@@H](CC(C)C)C(=O)N[C@@H](CCCCNC(C)C)C(=O)N1CCC[C@H]1C(=O)N[C@H](C)C(N)=O [Example 63, NAc-D2Nal^1 -D4ClPhe^2 -D3Pal^3 -Ser^4 -NMePhe(Atz)^5 -DLys(N-epsilon-N'-Gly-Atz)^6 -Leu^7 -Lys(N-epsilon-Isopropyl)^8 -Pro^9 -DAla^10 NH2] (Ac-[d2Nal][dPhe(4-Cl)][d3Pal]S[NMePhe(4-NH(5-NH2-Trz-3-yl))][dK](X4)L[Lys(iPr)]P[dA]-NH2)
Kb: 4.47 pM

CC(=O)N[C@H](Cc1ccc2ccccc2c1)C(=O)N[C@H](Cc1ccc(Cl)cc1)C(=O)N[C@H](Cc1cccnc1)C(=O)N[C@@H](CO)C(=O)N(C)[C@@H](Cc1ccc(O)cc1)C(=O)N[C@H](CCCCNC(=O)NCCNC(=O)c1ccco1)C(=O)N[C@@H](CC(C)C)C(=O)N[C@@H](CCCNC(=N)N)C(=O)N1CCC[C@H]1C(=O)N[C@H](C)C(N)=O [Example 36, NAc-D2Nal^1 -D4ClPhe^2 -D3Pal^3 -Ser^4 -NMeTyr^5 -DLys[N-epsilon-(N'-Carbonyl-Diaminoethane-N"-Furoyl)]^6 -Leu^7 -Arg^8 -Pro^9 -DAla^10 NH2] (Ac-[d2Nal][dPhe(4-Cl)][d3Pal]S[NMeY][dK]([CO-Ethylenediamine-2Furoyl])LRP[dA]-NH2)
Kb: 10.7 pM

CC(=O)N[C@H](Cc1ccc2ccccc2c1)C(=O)N[C@H](Cc1ccc(Cl)cc1)C(=O)N[C@H](Cc1cccnc1)C(=O)N[C@@H](CO)C(=O)N(C)[C@@H](Cc1ccc(O)cc1)C(=O)N[C@H](CCCCNC(=O)NNC(=O)c1cc2ccccc2cc1O)C(=O)N[C@@H](CC(C)C)C(=O)N[C@@H](CCCCNC(C)C)C(=O)N1CCC[C@H]1C(=O)N[C@H](C)C(N)=O [Example 5d, NAc-D2Nal^1 -D4ClPhe^2 -D3Pal^3 -Ser^4 -NMeTyr^5 -DLys[N-epsilon-Azagly-(3-OH-2-Naphthoyl)]^6 -Leu^7 -Lys(N-epsilon-Isopropyl)^8 -Pro^9 -DAla^10 NH2] (Ac-[d2Nal][dPhe(4-Cl)][d3Pal]S[NMeY][dK]([azaGly-X1])L[Lys(iPr)]P[dA]-NH2)
Kb: 55 pM
